From patent US6747058B1
In brackets after ≈: the same amount, converted by molar mass.

Key:
[1] = Pharmacokinetics (tmax) after intravenous and nebulizer inhalation administration, dog; format: in vivo; conditions: for Tmax at 14 day / Tmax: blood; for Tmax at 14 day: multiple dose (14 day)
Method: (§1) Two animal species, rat and dog, are administered the formulation in a 14 day multiple dose inhalation study with a nebulizer. Results from the pharmacokinetic portion of the study indicate comparability between tmax values found for intravenous and inhaled delivery.

[2] = cited from earlier work
[3] = Pharmacokinetics (tmax) after intravenous and nebulizer inhalation administration, rat; format: in vivo; conditions: blood; for Tmax: single dose; for Tmax at 14 day: multiple dose (14 day)
Method: as §1

## CCCCCc1cc(O)c2c(c1)OC(C)(C)[C@@H]1CCC(C)=C[C@@H]21
[1]; IV, 1 mg/kg, single dose, tmax minus duration of exposure
  App. calc. tmax: 1.9 min
[1]; inhaled or intranasal, 2 mg/kg, inhalation, 2 mg/kg, 8 minutes exposure, read-out: Average tmax (converted)
  Tmax at 14 day: 10.2 min
[1]; inhaled or intranasal, 2 mg/kg, inhalation, 2 mg/kg, 8 minutes exposure, tmax minus duration of exposure, read-out: App. calc. tmax (converted)
  Tmax at 14 day: 2.2 min
[1]; inhaled or intranasal, 2 mg/kg, inhalation, 2 mg/kg, 8 minutes exposure, single dose, read-out: Average tmax (converted)
  Tmax: 15.6 min
[1]; inhaled or intranasal, 2 mg/kg, inhalation, 2 mg/kg, 8 minutes exposure, single dose, tmax minus duration of exposure, read-out: App. calc. tmax (converted)
  Tmax: 7.6 min
[1]; inhaled or intranasal, 5 mg/kg, inhalation, 5 mg/kg, 20 minutes exposure, read-out: Average tmax (converted)
  Tmax at 14 day: 22.2 min
[1]; inhaled or intranasal, 5 mg/kg, inhalation, 5 mg/kg, 20 minutes exposure, tmax minus duration of exposure, read-out: App. calc. tmax (converted)
  Tmax at 14 day: 2.2 min
[1]; inhaled or intranasal, 15 mg/kg, inhalation, 15 mg/kg, 60 minutes exposure, read-out: Average tmax (converted)
  Tmax at 14 day: 66 min
[1]; inhaled or intranasal, 15 mg/kg, inhalation, 15 mg/kg, 60 minutes exposure, tmax minus duration of exposure, read-out: App. calc. tmax (converted)
  Tmax at 14 day: 6 min
[1]; iv, 1 mg/kg, IV, 1 mg/kg, single dose, read-out: Average tmax (converted)
  Tmax: 1.8 min
[1]; iv, 1 mg/kg, IV, 1 mg/kg, single dose, tmax minus duration of exposure, read-out: App. calc. tmax (converted)
  Tmax: 1.8 min
[2]
  solubility in water: 3000 µg/mL (≈ 9.54 mM)
[3]; inhaled or intranasal, 0.5 mg/kg, inhalation, 0.5 mg/kg, 1.25 minutes exposure, read-out: Average tmax (converted)
  Tmax: 5.7 min
[3]; inhaled or intranasal, 0.5 mg/kg, inhalation, 0.5 mg/kg, 1.25 minutes exposure, tmax minus duration of exposure, read-out: App. calc. tmax (converted)
  Tmax: 4.45 min
[3]; inhaled or intranasal, 2 mg/kg, inhalation, 2 mg/kg, 5 minutes exposure, read-out: Average tmax (converted)
  Tmax at 14 day: 6 min
[3]; inhaled or intranasal, 2 mg/kg, inhalation, 2 mg/kg, 5 minutes exposure, tmax minus duration of exposure, read-out: App. calc. tmax (converted)
  Tmax at 14 day: 1 min
[3]; inhaled or intranasal, 4.6 mg/kg, inhalation, 4.6 mg/kg, 15 minutes exposure, read-out: Average tmax (converted)
  Tmax: 33.3 min
[3]; inhaled or intranasal, 4.6 mg/kg, inhalation, 4.6 mg/kg, 15 minutes exposure, tmax minus duration of exposure, read-out: App. calc. tmax (converted)
  Tmax: 18.3 min
[3]; inhaled or intranasal, 5 mg/kg, inhalation, 5 mg/kg, 15 minutes exposure, read-out: Average tmax (converted)
  Tmax at 14 day: 17.4 min
[3]; inhaled or intranasal, 5 mg/kg, inhalation, 5 mg/kg, 15 minutes exposure, tmax minus duration of exposure, read-out: App. calc. tmax (converted)
  Tmax at 14 day: 2.4 min
[3]; inhaled or intranasal, 15 mg/kg, inhalation, 15 mg/kg, 45 minutes exposure, read-out: Average tmax (converted)
  Tmax at 14 day: 46.2 min
[3]; inhaled or intranasal, 15 mg/kg, inhalation, 15 mg/kg, 45 minutes exposure, tmax minus duration of exposure, read-out: App. calc. tmax (converted)
  Tmax at 14 day: 1.2 min
[3]; iv, 2 mg/kg, IV, 2 mg/kg, read-out: Average tmax (converted)
  Tmax: 2.1 min
[3]; iv, 2 mg/kg, IV, 2 mg/kg, tmax minus duration of exposure, read-out: App. calc. tmax (converted)
  Tmax: 2.1 min
